Measured values as given in patent US6737547B1, “Compositions containing and methods of using N-acyl-1H-aminoindenes” (Teva Pharmaceutical Industries, Ltd., priority 1998, dated 2004).
Entries after “also recorded” stand apart in the source; their conditions may differ. Like-named read-outs stand apart in the source and are kept apart here.

What was measured:
[1] = system: guinea-pig ileal preparation; assay: Decrease of contractile response to intramural electric stimulation in the guinea-pig ileal preparation; settings: Cavia porcellus
Experimental: A 2 cm-long section of the distal ileum freshly dissected from a CO2-asphyxiated guinea pig is cleaned from adhering tissue and mounted in an organ bath (5 mL) containing Krebs solution constantly aerated with oxygen containing 5% CO2. The initial tension is adjusted at 5 g per strip. Tension is monitored isometrically with a Grass FTC3 force transducer. Intramural electric stimulation is delivered through a platinum electrode from a Grass stimulator model s88, s44 at supramaximal voltage (V) and a frequency of 0.1/s. The preparation develops a rhythmic contractile response at maximal amplitude which is stable over time. Addition of test drugs to the organ bath causes a dose-dependent decrease in contraction amplitude which is stable over 5-8 minutes. The relative decrease in contractile response indicates the relative potency of a given agent in a series.
Blocking or decreasing neural excitability evoked by programmed electric stimulation is another indicator of a compound's potential neuroprotective activity. A convenient test system uses the guinea-pig ileal preparation mounted in an organ bath (see, for example, Eiichi Hayashi et al., European J. Pharmacol 48, 297-307, 1978).

[2] = system: mice; assay: Protection against hypobaric hypoxia in mice (survival time); type: in vivo
Experimental: The apparatus used consisted of two chambers A and B connected by a three-way valve. […] The air in chamber A was evacuated to a pressure of 100 mm Hg. The three way valve was turned to disconnect chamber B from room air and to connect it to chamber A. At this point, the pressure in B fell to 200 mm Hg. Survival of residing mice was determined up to a maximum exposure of 15 minutes, and is defined as the time between onset of hypoxia to cessation of respiration.

[3] = system: guinea-pig ileal preparation; assay: Potentiation of adenosine depression of contractile response, procedure I (in the presence of test compound); settings: drug present
Experimental: (§1) The test system used is the intramural electrically-stimulated guinea-pig ileal preparation as described in EXAMPLE 10. Adenosine added to the organ bath in rising concentrations in the range 0.1-10 uM causes a dose-dependent decrease in contraction amplitude, with an EC50 of about 1 uM.
In procedure I, the effect of a given concentration of adenosine, usually, 0.2 or 0.4 uM was first determined and related to the full contractile response in the absence of adenosine. […] The amplitude of the contractile response was recorded. Now, adenosine was added at the same dose initially used, and the effect of adenosine in the presence of the test compound was recorded.
(§2) The calculated effect is the product of the responses to each of the two agents when applied separately. The potentiation ratio is defined as (100%found)/(100-% calculated).

[4] = system: guinea-pig ileal preparation; assay: Potentiation of adenosine depression of contractile response, procedure II (after exposure to and washout of test compound); settings: for Mean potentiation ratio ± SEM: drug conc. (uM): 3, 100-400, 2a, 1000, 2, 1000
Experimental: as §1, §2
In all cases, the difference between the calculated and observed response was statistically significant. […] In procedure II, the dose response to adenosine was determined before and after exposure of the preparation to the test drug and washout of the test drug from the organ bath. In this case, significant potentiation of adenosine was observed even though the test drug had been washed out from the organ bath. In fact, the potentiation ratio, as defined earlier, was even higher than found in the presence of the test compounds (Procedure I), reaching very high values.

[5] = system: Male ICR mice; assay: Protection against maximal electroshock-induced seizure in mice (MES); type: in vivo; settings: for protected/total: electroshock 30 min after medication; for ED50: Mus musculus, median effective dose, maximal electroshock, mice, ip, read-out: ED50 (95% confidence limits)
Experimental: Male ICR mice were used. The rodent shocker apparatus consisted of a shock stimulator Type 221 (Hugo Sachs Elektronik, Germany) with a current setting for mice. Thirty minutes after medication with a given agent, given intraperitoneally as a fine slurry in methyl cellulose 0.5% in distilled water, each mouse received an electroshock of 50 mA for 0.2 seconds, applied to the eye, at a maximum of 250 V/300 mA. The ratio of mice protected against seizure in a group of four per dose was determined and used as an indicator of neuroprotective activity.
Protection of mice against seizures induced by electroshock is a widely used model to probe for potential anti-epileptic agents (see, for example, Y. I. Sohn et al., Anticonvulsant properties of diphenylthiohydantoin, Arch. Int. Pharmacodyn. 188, 284-289, 1970).

[6] = system: guinea-pig ileal preparation; assay: Decrease in contractile response of guinea-pig ileum evoked by the nicotinic agonist DMPP; design: Emax: dose or concentration left out as unconfirmed; settings: for reversibility of the depression by rising concentrations of DMPP: test compound at 200 uM fixed bath concentration, FIG. 8
Experimental: A strip of guinea-pig ileum is mounted in an organ bath, as described in EXAMPLE 10. 1-N,N-dimethyl-4-N-phenylpiperazinium chloride (DMPP) is added at intervals of about 15 minutes in order of increasing dose, to cause bath concentrations in the range of 0.1-10 uM. A brief contraction follows each addition. The amplitude of the contractile response is used to derive a dose-response relationship for DMPP. Usually, a bath concentration of 1 uM DMPP will give 90-100% of the maximal response obtainable in the given preparation. One of two procedures follows this: A dose-response of a test compound is determined in the presence of a fixed concentration of DMPP. This is done by incubating the preparation with a given concentration of the test compound, then challenging it with DMPP at a dose to give 1 uM bath concentration. The procedure is repeated with the next higher concentration of the test compound. In the other procedure, the dose-response of DMPP is determined in the presence of a fixed bath concentration of the test compound, usually 200 uM.
When intramural nerve stimulation occurs, as in the case of electrical stimulation, the contractile effector substance is released from nerve endings by a depolarization wave that propagates along the parasympathetic nerve fiber until its junction with smooth muscle of the ileum. An alternative but not equivalent procedure is stimulation of parasympathetic ganglia by an appropriate nicotinic agonist such as 1-N,N-dimethyl-4-N-phenylpiperazinium chloride (DMPP). Stimulation of parasympathetic ganglia causes a depolarization wave in the post-ganglionic nerve fiber which terminates on the smooth muscle of the ileum, causing release of contractile effector and contraction (see, for example, E. S. Vizi, Acetylcholine release from guinea-pig ileum by parasympathetic ganglion stimulants and gastrin-like polypeptides, Br. J. Pharmacol. 47, 765-77. 1973).

[7] = Mus musculus, ip, mice, 200 mm Hg, read-out: survival ± SD (survival time as percent of vehicle control)
[8] = calculated from logit plot, contractile response to intramural electric stimulation, read-out: EC50
[9] = adenosine 0.1 uM, drug conc. range 40-400 uM
[10] = adenosine 0.2 uM, drug conc. range 40-400 uM
[11] = adenosine 0.4 uM, after exposure and washout, 5, 50-400, 6, 50-400
[12] = Mus musculus, 25 mg/kg, ip, mice, 200 mm Hg, read-out: survival ± SD (survival time as percent of vehicle control)
[13] = Mus musculus, 50 mg/kg, ip, mice, 200 mm Hg, read-out: survival ± SD (survival time as percent of vehicle control)
[14] = Cavia porcellus, calculated from logit plot, inhibiting contractile response to 1 uM DMPP, read-out: EC50
[15] = Mus musculus, 12.5 mg/kg, ip, mice, 200 mm Hg, read-out: survival ± SD (survival time as percent of vehicle control)
[16] = dose of 25 mg/kg, listed in decreasing order of activity
[17] = adenosine 0.4 uM, drug conc. range (uM): 3, 20-400, 5, 50-200, 6, 25-50
[18] = adenosine 0.4 uM, after exposure and washout, drug conc. range (uM): 3, 100-400, 5, 50-400, 6, 50-400
[19] = Mus musculus, ip, read-out: survival ± SD (survival time as percent of vehicle control)

Nc1ncnc2c1ncn2[C@@H]1O[C@H](CO)[C@@H](O)[C@H]1O [Adenosine, adenosine, reference compound]
EC50 ([1]; adenosine added in rising concentrations 0.1-10 uM, electrically-stimulated ileal preparation, read-out: EC50 of decrease in contraction amplitude): ~1 µM

CC(=O)NC1CCc2ccccc21 (stereo not drawn) [Compound 2, N-acetyl-1-aminoindan, reference compound]
response vs control in vivo at 100 mg/kg [2, 7]: 200% | EC50 [1, 8]: 1840 µM | Mean potentiation ratio ± SEM [3, 9]: 1.35 ± 0.07 | potentiation ratio, Max [3, 9]: 1.49 | potentiation ratio, Min [3, 9]: 1.16 | Mean potentiation ratio ± SEM [3, 10]: 1.24 ± 0.16 | potentiation ratio, Max [3, 10]: 1.51 | potentiation ratio, Min [3, 10]: 0.79 | Mean potentiation ratio ± SEM [4, 11]: 0.87

CC(=O)N[C@@H]1CCc2ccccc21 [Compound 2a, (R)-N-acetyl-1-aminoindan, reference compound]
response vs control in vivo at 25 mg/kg [2, 12]: 142 ± 94% | response vs control in vivo at 36 mg/kg ([2]; Mus musculus, 36 mg/kg, ip, mice, 200 mm Hg, read-out: survival ± SD (survival time as percent of vehicle control)): 110 ± 57% | response vs control in vivo at 50 mg/kg [2, 13]: 299 ± 69% | response vs control in vivo at 100 mg/kg [2, 7]: 375 ± 72% | protected/total ([5]; 25 mg/kg intraperitoneally): 0/4 | protected/total ([5]; 50 mg/kg intraperitoneally): 3/4 | protected/total ([5]; 100 mg/kg intraperitoneally): 4/4 | ED50 [5]: 42 mg/kg | EC50 [1, 8]: 748 µM | EC50 [6, 14]: 279 µM | reversibility of the depression by rising concentrations of DMPP [6]: almost to full restoration | Mean potentiation ratio ± SEM [3, 10]: 1.31 ± 0.05 | potentiation ratio, Max [3, 10]: 1.43 | potentiation ratio, Min [3, 10]: 1.19 | Mean potentiation ratio ± SEM [4, 11]: 1.41 | rate of restoration of the original response to adenosine after washout ([4]; after exposure to and washout of the potentiating agent): fastest

CC(=O)NC1=CCc2ccccc21 [Compound 3, N-Acetyl-3-amino-1H-indene]
protection over 2a (control) ([2]; 50 mg/kg, mice): 1000% | side effects ([2]; 50 mg/kg, mice): minor and transient side effects such as slight sedation, hypopnea and defecation | response vs control in vivo at 12.5 mg/kg [2, 15]: 637 ± 341% | response vs control in vivo at 25 mg/kg [2, 12]: 735 ± 238% | response vs control in vivo at 50 mg/kg [2, 13]: 879 ± 237% | response vs control in vivo at 100 mg/kg [2, 7]: 703 ± 242% | activity in the hypobaric hypoxia model (in words) [2, 16]: strong activity | protected/total ([5]; 100 mg/kg intraperitoneally): 1/4 | protected/total ([5]; 125 mg/kg intraperitoneally): 2/4 | protected/total ([5]; 150 mg/kg intraperitoneally): 4/4 | ED50 [5]: 116 mg/kg | EC50 [1, 8]: 251 µM | EC50 [6, 14]: 170 µM | reversibility of the depression by rising concentrations of DMPP [6]: not reversible; also recorded: irreversibly blocked | Mean potentiation ratio ± SEM [3, 17]: 1.49 ± 0.075 | potentiation ratio, Max [3, 17]: 1.74 | potentiation ratio, Min [3, 17]: 1.29 | Mean potentiation ratio ± SEM [4, 11]: 1.54 ± 0.25 | potentiation ratio, Max [4, 18]: 1.99 | potentiation ratio, Min [4, 18]: 1.14

CC(=O)NC1=CCCc2ccccc21 [Compound 4, N-Acetyl-4-amino-1,2-dihydronaphthalene]
response vs control in vivo at 25 mg/kg [2, 19]: 156 ± 24% | activity in the hypobaric hypoxia model (in words) ([2]; dose not given): inactive | protected/total ([5]; 75 mg/kg intraperitoneally): 0/4 | protected/total ([5]; 100 mg/kg intraperitoneally): 3/4 | ED50 [5]: 92.3 mg/kg | EC50 [1, 8]: 752 µM | EC50 ([6]; Cavia porcellus): 193 µM

O=CNC1=CCc2cc(Cl)ccc21 [Compound 7, N-formyl-6-chloro-3-amino-1H-indene]
response vs control in vivo at 12.5 mg/kg [2, 15]: 357 ± 299% | response vs control in vivo at 25 mg/kg [2, 12]: 467 ± 239% | response vs control in vivo at 50 mg/kg [2, 13]: 893 ± 433% | activity in the hypobaric hypoxia model (in words) [2, 16]: strong activity

COC(=O)NC1=CCc2ccccc21 [Compound 8, N-Methoxycarbonyl-3-amino-1H-indene]
response vs control in vivo at 12.5 mg/kg [2, 19]: 195 ± 90% | response vs control in vivo at 25 mg/kg [2, 19]: 402 ± 348% | response vs control in vivo at 50 mg/kg [2, 19]: 547 ± 327% | activity in the hypobaric hypoxia model (in words) [2, 16]: strong activity

CC(=O)NC1CCc2cc(Cl)ccc21 (stereo not drawn) [Compound 13, reference compound]
response vs control in vivo at 50 mg/kg [2, 13]: 148 ± 77% | response vs control in vivo at 100 mg/kg [2, 7]: 267 ± 151%

C[N+]1(C)CCN(c2ccccc2)CC1 [DMPP, 1-N,N-dimethyl-4-N-phenylpiperazinium chloride, reference compound]
Emax ([6]; Cavia porcellus, read-out: contractile response as % of the maximal response obtainable): 90 to 100%

CN1C(=O)CN=C(c2ccccc2)c2cc(Cl)ccc21 [Diazepam, diazepam, reference compound]
response vs control in vivo at 10 mg/kg [2, 19]: 316 ± 78%

CCCC(C)C1(CC)C(=O)N=C([O-])NC1=O.[Na+] (stereo not drawn) [Nembutal, reference compound]
survival ± SD (survival time as percent of vehicle control) ([2]; 40 mg/kg, ip, mice, 200 mm Hg): 253 ± 200% of vehicle control

CCCC(CCC)C(=O)[O-].[Na+] [Sodium valproate, sodium valproate, reference compound]
protected/total ([5]; 280 mg/kg): 1/8 | protected/total ([5]; 310 mg/kg): 2/8 | protected/total ([5]; 340 mg/kg): 4/8 | protected/total ([5]; 400 mg/kg): 6/8 | protected/total ([5]; 600 mg/kg): 8/8 | ED50 [5]: 350 mg/kg
